Experimental data: ChEMBL document CHEMBL4138203, “Recent developments in anti-Trichomonas research: An update review” (Eur J Med Chem, 2018)
Values after ≈ are worked out from the molar mass of the structure shown.

Experiments:
Trichomonas vaginalis [1] = experiment: Anti-Trichomonas activity against Trichomonas vaginalis after 24 hrs by inverted microscopic analysis; assay type: functional
Trichomonas vaginalis [2] = experiment: Anti-Trichomonas activity against Trichomonas vaginalis at 100 uM; assay type: functional
Trichomonas vaginalis [3] = experiment: Anti-Trichomonas activity against Trichomonas vaginalis; assay type: functional, organism-based
Trichomonas vaginalis [4] = experiment: Anti-Trichomonas activity against Metronidazole-resistant Trichomonas vaginalis 085 ATCC 50143 after 48 hrs by inverted microscopic analysis; assay type: functional; conditions: 085 ATCC 50143, 48 h
Trichomonas vaginalis [5] = experiment: Anti-Trichomonas activity against Metronidazole-resistant Trichomonas vaginalis isolate 085 ATCC 50143 infected in Swiss Webster mouse at 25 mg/kg, po dosed for 4 days measured at 24 hrs post last dose by microscopic analysis; assay type: functional
Trichomonas vaginalis [6] = experiment: Potency index, ratio of Metronidazole MIC to compound MIC for anti-trichomonas activity against Metronidazole-resistant Trichomonas vaginalis 085 ATCC 50143; assay type: functional
Homo sapiens [7] = organism: Homo sapiens; experiment: Spermicidal activity in human semen assessed as induction of sperm immobilization; assay type: functional
Trichomonas vaginalis [8] = experiment: Anti-Trichomonas activity against metronidazole-resistant Trichomonas vaginalis after 48 hrs by trypan blue exclusion assay; assay type: functional
Trichomonas vaginalis [9] = experiment: Anti-Trichomonas activity against metronidazole-susceptible Trichomonas vaginalis after 48 hrs by trypan blue exclusion assay; assay type: functional
Trichomonas vaginalis [10] = experiment: Anti-Trichomonas activity against metronidazole-resistant Trichomonas vaginalis JT after 48 hrs by hemocytometry; assay type: functional, organism-based
Trichomonas vaginalis [11] = experiment: Anti-Trichomonas activity against Trichomonas vaginalis by quantitative fluorescent method; assay type: functional
Trichomonas vaginalis [12] = experiment: Anti-Trichomonas activity against metronidazole-susceptible Trichomonas vaginalis ATCC 30236 after 24 hrs by hemocytometry; assay type: functional, organism-based; conditions: ATCC 30236, 24 h
Trichomonas vaginalis [13] = experiment: Anti-Trichomonas activity against metronidazole-susceptible Trichomonas vaginalis ATCC 30001 assessed as inhibition of parasite growth at 5.5 mM measured at 5 to 60 mins in presence of NH4Cl by trypan blue-based assay; assay type: functional
Trichomonas vaginalis [14] = experiment: Anti-Trichomonas activity against metronidazole-resistant Trichomonas vaginalis ATCC 50138 assessed as inhibition of parasite growth at 5.5 mM measured at 5 to 60 mins in presence of NH4Cl by trypan blue-based assay; assay type: functional
Trichomonas vaginalis [15] = experiment: Anti-Trichomonas activity against Trichomonas vaginalis isolate 1 at 250 uM after 48 hrs by microscopic analysis; assay type: functional; conditions: isolate 1, 48 h
Trichomonas vaginalis [16] = experiment: Anti-Trichomonas activity against Trichomonas vaginalis isolate 2 at 250 uM after 48 hrs by microscopic analysis; assay type: functional; conditions: isolate 2, 48 h
Homo sapiens [17] = organism: Homo sapiens; experiment: Spermicidal activity in human semen assessed as induction of sperm immobilization 0.0015% after 30 secs in presence of sapindus saponin
Trichomonas vaginalis [18] = experiment: Anti-Trichomonas activity against Trichomonas vaginalis JT assessed as reduction in parasite growth after 48 hrs by haemocytometry; assay type: functional, organism-based
Trichomonas vaginalis [19] = experiment: Anti-Trichomonas activity against Trichomonas vaginalis JT assessed as reduction in parasite growth after 24 hrs by haemocytometry; assay type: functional, organism-based
Trichomonas vaginalis [20] = experiment: Anti-Trichomonas activity against metronidazole-resistant Trichomonas vaginalis IR78 ATCC 50138 cultured in PBS/BSA media assessed as reduction in parasite growth after 30 mins by haemocytometry; assay type: functional, organism-based; conditions: IR78 ATCC 50138, 0.5 h
Trichomonas vaginalis [21] = experiment: Anti-Trichomonas activity against metronidazole-resistant Trichomonas vaginalis IR78 ATCC 50138 cultured in TYI-S-33 media assessed as reduction in parasite growth after 30 mins by haemocytometry; assay type: functional, organism-based; conditions: IR78 ATCC 50138, 0.5 h
[22] = Trichomonas vaginalis, read-out: MIC

COC(=O)C1=CC[C@@H](O[C@@H]2O[C@H](CO)[C@@H](O)[C@H](O)[C@H]2O)C(CCC=O)[C@@H]1CC(=O)OCCc1ccc(O)c(O)c1 (some centres undefined)
MIC (Trichomonas vaginalis [1]): 12.5 µM (≈ 7.11 µg/mL)

C[C@H]1CC[C@]2(NC1)O[C@H]1C[C@H]3[C@@H]4CC[C@H]5C[C@@H](O[C@@H]6O[C@H](CO)[C@H](O[C@@H]7O[C@H](CO)[C@@H](O)[C@H](O[C@@H]8OC[C@@H](O)[C@H](O)[C@H]8O)[C@H]7O[C@@H]7O[C@H](CO)[C@@H](O)[C@H](O)[C@H]7O)[C@H](O)[C@H]6O)CC[C@]5(C)[C@H]4CC[C@]3(C)[C@H]1[C@@H]2C [TOMATINE]
inhibition at 100 µM (Trichomonas vaginalis [2]): 103%

COc1cc(/C=C/C(=O)CC(=O)/C=C/c2ccc(O)c(OC)c2)ccc1O [CURCUMIN]
EC50 (Trichomonas vaginalis [3]; Trichomonas vaginalis): 100 µg/mL (≈ 271 µM)

c1cc(CCCc2ccc(-c3nc4ccccc4[nH]3)cc2)cc(-c2nc3ccccc3[nH]2)c1
MIC (Trichomonas vaginalis [4]): 26 µM (≈ 11.1 µg/mL)
Activity (Trichomonas vaginalis [5]): 100%
Ratio (Trichomonas vaginalis [6]): 5.5

Cc1ncc([N+](=O)[O-])n1CCO [METRONIDAZOLE]
MEC (Homo sapiens [7]): 1%
MIC (Trichomonas vaginalis [8]): 1 to 111 µM

C1CCNCC1.S=C(S)N1CCCC1 [listing 1 of 2 here]
MEC (Homo sapiens [7]): 61.5 mg/L

C1CCNCC1.S=C(S)N1CCCC1 [listing 2 of 2 here]
MIC (Trichomonas vaginalis [9]): 1.56 µg/mL
MIC (Trichomonas vaginalis [8]): 7.8 µg/mL

OC1(c2ccc(-c3ccccc3)cc2)CN2CCC1CC2 (centres undefined)
IC50 (Trichomonas vaginalis [10]): 46 µM

CCCCCCCCCCCCCCCC(=O)O [PALMITIC ACID]
MIC (Trichomonas vaginalis [3]; [22]): 500 to 1000 µg/mL (≈ 1950 to 3900 µM)

C[C@H]1[C@H](C)CC[C@]2(C(=O)O[C@@H]3O[C@H](CO)[C@@H](O)[C@H](O)[C@H]3O)CC[C@]3(C)C(=CC[C@@H]4[C@@]5(C)CC[C@H](O[C@@H]6O[C@H](CO[C@@H]7O[C@@H](C)[C@H](O)[C@@H](O)[C@H]7O[C@@H]7O[C@H](CO)[C@@H](O)[C@H](O)[C@H]7O)[C@@H](O)[C@@H]6O)C(C)(C)[C@@H]5CC[C@]43C)[C@H]12
MIC (Trichomonas vaginalis [11]): 0.05%

COc1cc2c(c(O)c1C(=O)C(C)C)C=CC(C)(C)O2
IC50 (Trichomonas vaginalis [12]): 1230 µM

FC(F)(F)c1ccc(OC(CCN2CCCC2)c2ccccc2)cc1 (centres undefined)
MEC (Homo sapiens [7]): 1%
MIC (Trichomonas vaginalis [8]): 12.5 to 50 µg/mL

Oc1cc(O)c2c(c1)O[C@H](c1ccc(O)c(O)c1)[C@H](O[C@]1(c3ccc(O)c(O)c3)Oc3cc(O)cc(O)c3[C@H](O)[C@H]1O)C2
MIC (Trichomonas vaginalis [3]; [22]): > 2000 µg/mL

O=S(=O)(O)CCNCl
inhibition at 5500 µM (Trichomonas vaginalis [13]): 100%
inhibition at 5500 µM (Trichomonas vaginalis [14]): 100%

COC(=O)C1=CO[C@@H](O[C@@H]2O[C@H](CO)[C@@H](O)[C@H](O)[C@H]2O)[C@H]2[C@@H]1C=C[C@@]21C=C([C@H](C)OC(=O)/C=C/c2ccc(O)cc2)C(=O)O1
MIC (Trichomonas vaginalis [1]): 12.5 µM (≈ 7.71 µg/mL)

COC(=O)C1=CO[C@H](O[C@@H]2O[C@H](CO)[C@@H](O)[C@H](O)[C@H]2O)[C@@]2(C)[C@@H](C)OC(=O)C(C)(C)[C@@H](C)OC(=O)C[C@@]12C
MIC (Trichomonas vaginalis [1]): 6.25 µM (≈ 3.42 µg/mL)

CN(CCC(Oc1ccc(C(F)(F)F)cc1)c1ccccc1)C(=S)SCN1CCCC1 (centres undefined)
MEC (Homo sapiens [7]): 0.05%
MIC (Trichomonas vaginalis [8]): 14 µg/mL

CC(C)C(=O)C1=C(O)C(Cc2c(O)c3c(c(C(=O)C(C)C)c2O)OC(C)(C)C=C3)=C(O)C(C)(C)C1=O
IC50 (Trichomonas vaginalis [12]): 122 µM

CCCCCCCCCCCC(=O)O[C@H]1C=C2CCN3Cc4cc5c(cc4[C@H]([C@@H]1O)[C@@H]23)OCO5
inhibition at 250 µM (Trichomonas vaginalis [15]): 100%
inhibition at 250 µM (Trichomonas vaginalis [16]): 100%

C1CCNC1.S=C(S)N1CCCC1 [listing 1 of 2 here]
MIC (Trichomonas vaginalis [9]): 5.25 µM
MIC (Trichomonas vaginalis [8]): 13.5 µM

O=C(SCC(CN1CCCC1)SSC(CSC(=O)N1CCCCC1)CN1CCCC1)N1CCCCC1 (centres undefined)
Activity (Homo sapiens [17]): 100%

Oc1cc(O)c2c(c1)O[C@H](c1cc(O)c(O)c(O)c1)[C@@H](O)[C@@H]2c1c(O)cc(O)c2c1O[C@H](c1cc(O)c(O)c(O)c1)[C@@H](O)C2
MIC (Trichomonas vaginalis [3]; [22]): > 2000 µg/mL

CC(C)=CCC/C(C)=C/CO [GERANIOL]
IC50 (Trichomonas vaginalis [3]; Trichomonas vaginalis): 171 µg/mL (≈ 1110 µM)

O=C(/C=C/c1ccc(O)c(O)c1)O[C@H](Cc1ccc(O)c(O)c1)C(=O)O [ROSMARINIC ACID]
MIC (Trichomonas vaginalis [3]; [22]): 20 µg/mL (≈ 55.5 µM)

C1CCNC1.S=C(S)N1CCCC1 [listing 2 of 2 here]
MEC (Homo sapiens [7]): 145 µM

C[C@@H](CCC1(O)OC2CC3C4C[C@H](O[C@H]5O[C@@H](C)[C@H](O)[C@@H](O[C@H]6O[C@@H](C)[C@H](O)[C@@H](O)[C@@H]6O)[C@@H]5O)[C@H]5CC(=O)CC[C@]5(C)C4CC[C@]3(C)C2[C@@H]1C)CO[C@@H]1O[C@H](CO)[C@@H](O)[C@H](O)[C@H]1O (some centres undefined)
MIC (Trichomonas vaginalis [1]): 6.25 to 50 µM (≈ 5.64 to 45.2 µg/mL)

CCCCCCCCCCCCCCCCCCCCCCCC
MIC (Trichomonas vaginalis [3]; [22]): 500 to 1000 µg/mL (≈ 1480 to 2950 µM)

OC[C@H]1O[C@@H](Oc2ccc(O)cc2)[C@H](O)[C@@H](O)[C@@H]1O [ARBUTIN]
MIC (Trichomonas vaginalis [3]; [22]): 500 µg/mL (≈ 1840 µM)

CCCCCCCCCCCCCCCCOP(=O)([O-])OCC[N+](C)(C)C [MILTEFOSINE]
IC50 (Trichomonas vaginalis [18]): 20 µM
IC50 (Trichomonas vaginalis [19]): 14.5 µM
MIC (Trichomonas vaginalis [4]): 145 µM (≈ 59.1 µg/mL)

CC1(C)CC[C@]2(C(=O)O)CC[C@]3(C)C(=CC[C@@H]4[C@@]5(C)CC[C@H](O[C@@H]6[C@@H](O)[C@H](O[C@@H]7O[C@H](CO)[C@@H](O)[C@H](O)[C@H]7O)O[C@H](CO)[C@H]6O)C(C)(C)[C@@H]5CC[C@]43C)[C@@H]2C1
MIC (Trichomonas vaginalis [3]): 0.25%

CC1(C)CC[C@]2(C(=O)O)[C@H](O)C[C@]3(C)C(=CC[C@@H]4[C@@]5(C)CC[C@H](O[C@@H]6O[C@H](C(=O)O)[C@@H](O)[C@H](O)[C@H]6O)[C@@](C)(C=O)[C@@H]5CC[C@]43C)[C@@H]2C1
MIC (Trichomonas vaginalis [3]): 0.025%

C=C(CO[C@@H]1O[C@H](CO)[C@@H](O)[C@H](O)[C@H]1O)[C@@H]1Cc2c(ccc3c2O[C@H]2COc4cc(OC)c(OC)cc4[C@H]2[C@@H]3O)O1
MIC (Trichomonas vaginalis [1]): 6.25 µM (≈ 3.59 µg/mL)

N#CCCCN1CCN(C(=S)SSC(=S)N2CCN(CCCC#N)CC2)CC1
MIC (Trichomonas vaginalis [8]): 3.12 to 50 µg/mL

COc1cc2c(c(OC)c1C(=O)C(C)C)C=CC(C)(C)O2
IC50 (Trichomonas vaginalis [12]): 226 µM

C[C@@H](CCC1(O)OC2CC3C4C[C@H](O[C@H]5O[C@@H](C)[C@H](O)[C@@H](O[C@H]6O[C@@H](C)[C@H](O)[C@@H](O)[C@@H]6O)[C@@H]5O)[C@H]5CC(O)CC[C@]5(C)C4CC[C@]3(C)C2[C@@H]1C)CO[C@@H]1O[C@H](CO)[C@@H](O)[C@H](O)[C@H]1O (some centres undefined)
MIC (Trichomonas vaginalis [1]): 6.25 to 50 µM (≈ 5.66 to 45.3 µg/mL)

CCCCCCCCN=c1ccn(CCCCCCCCCCn2ccc(=NCCCCCCCC)cc2)cc1.Cl.Cl [OCTENIDINE HYDROCHLORIDE]
EC50 (Trichomonas vaginalis [20]): 0.68 to 2.11 µg/mL
EC50 (Trichomonas vaginalis [21]): 0.68 to 2.11 µg/mL

COc1c2c(cc(O)c1C(=O)C(C)C)OC(C)(C)C=C2
IC50 (Trichomonas vaginalis [12]): 834 µM
